Measured values published in patent US20250027130A1, “Nucleic Acid Synthesis and Sequencing Using Tethered Nucleoside Triphosphates” (The Regents of the University of California, priority 2022, published 2025).

Key:
[1] = test system: DH10B ΔaspC ΔtyrB harboring pMega-MaFRSA; type: cell-based, E. coli; details: samples viii-ix, TB, 1 mM substrate
[2] = test system: DH10B cells co-expressing MaFRSA; experiment: In vivo incorporation at position 200 of sfGFP, MaFRSA (intact mass, GluC LC-MS/MS); type: cell-based, E. coli; details: samples iv-v, DH10B, TB, 1 mM substrate

Row | Structure (SMILES) | sfGFP containing variant 20 at position 200 [1] [%] | sfGFP containing variant 20 at position 200 [2] [%] | sfGFP containing variant 1 at position 200 [1] [%] | sfGFP containing variant 2 at position 200 [1] [%] | sfGFP containing variant 21 at position 200 [1] [%] | sfGFP containing variant A at position 200 [1] [%] | sfGFP containing variant F at position 200 [1] [%] | sfGFP containing variant K at position 200 [1] [%] | sfGFP containing variant Q at position 200 [1] [%] | sfGFP containing variant W at position 200 [1] [%] | sfGFP containing variant Y at position 200 [1] [%] | sfGFP containing variant 1 at position 200 [2] [%] | sfGFP containing variant 2 at position 200 [2] [%] | sfGFP containing variant 21 at position 200 [2] [%] | sfGFP containing variant A at position 200 [2] [%] | sfGFP containing variant F at position 200 [2] [%] | sfGFP containing variant K at position 200 [2] [%] | sfGFP containing variant Q at position 200 [2] [%] | sfGFP containing variant W at position 200 [2] [%] | sfGFP containing variant Y at position 200 [2] [%]
1 | N[C@@H](Cc1cccc(C(F)(F)F)c1)C(=O)O [Sample 20] | 98.19 | 98.73 |  |  |  |  |  |  |  |  |  |  |  |  |  |  |  |  |  | 
2 | N[C@@H](Cc1cccc(C(F)(F)F)c1)C(=O)O [Substrate 20] |  |  | 0.00 | 0.00 | 0.65 | 0.02 | 0.34 | 0.01 | 0.07 | 0.12 | 0.60 | 0.00 | 0.00 | 0.32 | 0.03 | 0.34 | 0.02 | 0.11 | 0.17 | 0.28
